Reference: patent US20040038369A1, “Airway-specific trypsin-like enzymes and method of using the same” (priority 2000, published 2004)
Counter-ions that a name gives are not always drawn.

Key:
recombinant AST = molecular target: T1, recombinant AST (Homo sapiens, UniProt O60235); assay: AST-inhibiting activity of compound; assay type: biochemical; conditions: substrate Boc-Phe-Ser-Arg-MCA, 24° C., 6 minutes
T1 construct: 232 amino acids from Ile at the 187th position to Ile at the 418th position; made in house; host or cells: insect cells (Tn-5), recombinant baculovirus
T1 sequence (O60235 187-418): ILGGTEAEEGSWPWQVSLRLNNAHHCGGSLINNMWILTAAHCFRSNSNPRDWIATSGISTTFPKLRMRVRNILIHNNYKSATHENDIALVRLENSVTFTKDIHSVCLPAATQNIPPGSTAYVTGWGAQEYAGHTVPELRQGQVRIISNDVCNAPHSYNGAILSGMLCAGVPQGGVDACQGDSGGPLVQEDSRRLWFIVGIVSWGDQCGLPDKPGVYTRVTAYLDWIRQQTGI
T1 sequence (O60235 162-186 partner limits assumed): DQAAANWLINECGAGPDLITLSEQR
Method: 0.05 mL of a 50 mM Tris-HCl buffer solution (pH 8.6) containing 2 ng/mL of the recombinant AST and 0.01% of Tween 20 was mixed with 2 μL of a DMSO solution containing nafamostat mesylate or gabexate mesylate as an evaluation target compound in various concentrations, and with 0.05 mL of a 50 mM Tris-HCl buffer solution (pH 8.6) containing 30 μM of a trypsin synthesis substrate: Boc-Phe-Ser-Arg-MCA, and incubated at 24° C. for 6 minutes. The quantities of the produced AMC were assayed by a fluorometry (fluorescent light: 460 nm, exciting light: 380 nm) with the passage of time, and the enzymatic activity-inhibiting ability of the compound was evaluated.

PAR-2 = molecular target: T2, PAR-2 (Homo sapiens, UniProt P55085); assay: Calcium influx in PAR-2-expressing insect cells; assay type: cell-based; conditions: AST 2 units/mL; trypsin, thrombin 0.1 to 10 units/mL; SFLLRNamide, SLIGRL 10 to 100 μM
T2 construct: expressed in transfected cells; host or cells: Sf9 insect cells infected with recombinant baculovirus VL-PAR (pVL1393)
T2 sequence (P55085 26-397): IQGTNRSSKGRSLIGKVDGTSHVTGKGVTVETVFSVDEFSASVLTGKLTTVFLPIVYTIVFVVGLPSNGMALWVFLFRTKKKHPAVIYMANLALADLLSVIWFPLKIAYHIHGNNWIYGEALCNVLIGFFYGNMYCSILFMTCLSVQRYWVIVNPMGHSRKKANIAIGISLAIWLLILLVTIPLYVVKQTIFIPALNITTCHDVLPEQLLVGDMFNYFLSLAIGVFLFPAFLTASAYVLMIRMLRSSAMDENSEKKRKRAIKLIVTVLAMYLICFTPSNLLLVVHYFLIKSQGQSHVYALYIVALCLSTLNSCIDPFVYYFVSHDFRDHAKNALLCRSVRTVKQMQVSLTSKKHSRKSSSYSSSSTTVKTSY
Method: The above-obtained recombinant baculovirus VL-PAR for expressing the PAR was used to infect 1.0×10^7 Sf9 cells sowed on a 75 cm^2 flask at an MOI=2, and was then left and stationally cultured at 27° C. for 40 hours. After the culture, the infected cells were recovered and then subjected to a calcium influx experiment to-confirm the function of the PAR.
The recovered infected cells (about 5×10^6 cells) were once washed with HEPES-Tyrode buffer solution-Ca^2+ (−) pH 7.4, and then suspended in 5 mL of HEPES-Tyrode buffer solution (containing Fura2-AM, 1 μg/mL) to load the Fura2-AM on the cells at 27° C. for 30 minutes. The suspension was centrifuged at 800 rpm at room temperature for 5 minutes to recover the cells. The cells were twice washed with HEPES-Tyrode buffer solution-Ca^2+ (−) pH 7.4 and then resuspended in 5 mL of HEPES-Tyrode buffer solution-Ca^2+ (−) pH 7.4. The cell suspension was mixed with 5 μL of 1M CaCl2 to give a final concentration of 1 mM CaCl2, and then incubated in a shaded state at room temperature for 5 minutes. The prepared Fura2-AM-loaded infected cells were dispensed into a 96 well plate in a volume of 100 μL/well, further subjected to the dispensation of HEPES-Tyrode buffer solution-C^2+ (+) pH 7.4 in a volume of 80 μL/well, and then assayed with a Fluorescence Drug Screening System (made by Hamamatsu Photonics Co.). Namely, [intensity of 500 nm fluorescent light due to 340 nm exciting light]/[intensity of 500 nm fluorescent light due to 380 nm exciting light] (reflecting the concentration of calcium in the cells) was assayed.

[1] = tested on: normal human airway epithelial cells; assay: Calcium influx in normal human airway epithelial cells; assay type: cell-based; conditions: AST 2 units/mL; trypsin 10 to 100 units/mL; SFLLRNamide 100 μM
Method: The Ca^2+ influx due to the AST was examined with confluent normal epithelial cells adhered to three 10 cm dishes (purchased from BioWhittaker Corp.). The cells were peeled with a 10 mM EDTA/HEPES-Tyrode buffer solution for 10 minutes, recovered by a centrifugal treatment at 800 rpm at room temperature for 5 minutes, and then resuspended in 5 mL of HEPES-Tyrode buffer solution-Ca^2+ (−) pH 7.4. The recovered cells (about 1.2×10^6 cells) were suspended in 5 mL of HEPES-Tyrode buffer solution (1 μg/mL, containing Fura2-AM) to load the Fura2-AM to the cells at 37° C. for one hour. The cells were recovered by a centrifugal treatment at 800 rpm at room temperature for 5 minutes, twice washed with HEPES-Tyrode buffer solution-Ca^2+ (−) pH 7.4, and then resuspended in […] of HEPES-Tyrode buffer solution-Ca^2+ (−) pH 7.4. The cell suspension was mixed with 5 μL of 1M CaCl2 to give a final concentration of 1 mM CaCl2, and then incubated in a shaded state at room temperature for 5 minutes. The prepared Fura2-AM-loaded infected cells were dispensed into a 96 well plate in a volume of 100 μL/well, further subjected to the dispensation of HEPES-Tyrode buffer solution-Ca^2+ (+) pH 7.4 in a volume of 80 μL/well, and then assayed with Fluorescence Drug Screening System (Hamamatsu Photonics Co.). […]

BEAS-2B = assay: Calcium influx in airway epithelial cell strain BEAS-2B; assay type: cell-based; conditions: AST 2 units/mL; trypsin 10 to 100 units/mL; SFLLRNamide 100 μM
Method: The Ca^2+ influx due to the AST was examined with respect to an airway epithelial cell strain BEAS-2B. The confluent cells adhered to six 10 cm dishes were used. The cells were peeled with a 10 mM EDTA/HEPES-Tyrode buffer solution for 10 minutes, recovered by a centrifugal treatment at 1,500 rpm at room temperature for 5 minutes, and then resuspended in 10 mL of HEPES-Tyrode buffer solution-Ca^2+ (−) pH 7.4. The recovered cells (about 1.1×10^7 cells) were suspended in 11 mL of HEPES-Tyrode buffer solution (1 μg/mL, containing Fura2-AM) to load the Fura2-AM at 37° C. for 30 minutes. The cells were recovered by a centrifugal treatment at 1,500 rpm at room temperature for 5 minutes, twice washed with HEPES-Tyrode buffer solution-Ca^2+ (−) pH 7.4, and then resuspended in 11 mL of HEPES-Tyrode buffer solution-Ca^2+ (−) pH 7.4. The cell suspension was mixed with […] of 1M CaCl2 to give a final concentration of 1 mM CaCl2, and then incubated in a shaded state at room temperature for 5 minutes. The prepared Fura2-AM-loaded infected cells were dispensed into a 96 well plate in a volume of 100 μL/well, further subjected to the dispensation of HEPES-Tyrode buffer solution-Ca^2+ (+) pH 7.4 in a volume of 80 μL/well, and then assayed with Fluorescence Drug Screening System (Hamamatsu Photonics Co.). […]

| Molecule | IC50 (recombinant AST) | Ca2+ influx (PAR-2) | Ca2+ influx [1] | Ca2+ influx (BEAS-2B) |
| --- | --- | --- | --- | --- |
| N=C(N)c1ccc2cc(OC(=O)c3ccc(N=C(N)N)cc3)ccc2c1 [Nafamostat mesylate, nafamostat mesylate] | 230 nM |  |  |  |
| SFLLRNamide [reference compound] |  | observed | observed | observed |
| gabexate mesylate | 140 nM |  |  |  |
